Consider eight molecules from ChEMBL document CHEMBL1157523, “Synthesis and in vivo evaluation of 11-substituted estradiol derivatives as anti-implantation agents” (2008).

Activity calls are given as the source filed them. The calls are words filed in the database; no cut-off is given here.

Common to all, as to assay type: functional
Assay [1] concerns Rattus norvegicus. As to the kind of experiment: Antiimplantation activity against Sprague-Dawley albino rat at 10 mg/kg, po administered for 1-5 days measured on day 10 of pregnancy relative to control.
For assay [2], the system named is Rattus norvegicus. As to the kind of experiment: Antiimplantation activity against Sprague-Dawley albino rat at 5 mg/kg, po administered for 1-5 days measured on day 10 of pregnancy relative to control.
For assay [3], the system named is Rattus norvegicus. As to the kind of experiment: Antiimplantation activity against Sprague-Dawley albino rat at 2 mg/kg, po administered for 1-5 days measured on day 10 of pregnancy relative to control.
In assay [4] the test system is Rattus norvegicus. As to the kind of experiment: Antiimplantation activity against Sprague-Dawley albino rat at 1 mg/kg, po administered for 1-5 days measured on day 10 of pregnancy relative to control.
For assay [5], the system named is Rattus norvegicus. As to the kind of experiment: Antiimplantation activity against Sprague-Dawley albino rat at 2.5 mg/kg, po administered for 1-5 days measured on day 10 of pregnancy relative to control.
For assay [6], the system named is Rattus norvegicus. As to the kind of experiment: Antiimplantation activity against Sprague-Dawley albino rat at 1.25 mg/kg, po administered for 1-5 days measured on day 10 of pregnancy relative to control.
The test system of assay [7] is Rattus norvegicus. As to the kind of experiment: Antiimplantation activity against Sprague-Dawley albino rat at 1.5 mg/kg, po administered for 1-5 days measured on day 10 of pregnancy relative to control.

`COc1ccc2c(c1)CCC1=C2C(O)(Cc2ccccc2)C[C@]2(C)[C@@H](O)CC[C@@H]12` (stereo partly specified) came in with an Activity in the assay with Rattus norvegicus [1] of 100%.

Take `COc1ccc2c(c1)CCC1=C2C(=O)C[C@]2(C)[C@@H](O)CC[C@@H]12`: the Activity in the assay with Rattus norvegicus [1] and with Rattus norvegicus [2] was 100% in each case. Further, the result with Rattus norvegicus [3] was inactive.

With `COc1ccc2c(c1)OC(C)(C)C(c1ccccc1)C2c1ccc(OCCN2CCCC2)cc1` (stereo unspecified) [ORMELOXIFENE], the Activity in the assay with Rattus norvegicus [1] and in the assay on Rattus norvegicus [4] was 100% in each case.

As to `C=CCC1=C[C@]2(C)[C@@H](O)CC[C@H]2C2=C1c1ccc(OC)cc1CC2`, the Activity in the assay on Rattus norvegicus [1] came out at 100%.

For the molecule `C=CCC1(O)C[C@]2(C)[C@@H](OC(C)=O)CC[C@H]2C2=C1c1ccc(OC)cc1CC2` (stereo partly specified), the Activity in the assay on Rattus norvegicus [1] was 100%.

Take `CCC1(O)C[C@]2(C)[C@@H](O)CC[C@H]2C2=C1c1ccc(OC)cc1CC2` (stereo partly specified): the Activity in the assay on Rattus norvegicus [1] is on record as 100%; in the assay with Rattus norvegicus [4], 50%; in the assay on Rattus norvegicus [2], 100%; with Rattus norvegicus [5], 100%; in the assay with Rattus norvegicus [6], 100%.

For the molecule `COc1ccc2c(c1)CCC1=C2C(C)(O)C[C@]2(C)[C@@H](O)CC[C@@H]12` (stereo partly specified), the Activity with Rattus norvegicus [1], in the assay with Rattus norvegicus [2] and with Rattus norvegicus [3] was 100% in each case.

In the case of `C=CCC1(O)C[C@]2(C)[C@@H](O)CC[C@H]2C2=C1c1ccc(OC)cc1CC2` (stereo partly specified), the Activity was found to be 100% in the assay on Rattus norvegicus [1]; 60% in the assay on Rattus norvegicus [4]; 100% in the assay with Rattus norvegicus [2]; 100% with Rattus norvegicus [3]; 60% in the assay on Rattus norvegicus [7].
